From patent US9315458B2, “Nitrogen-containing heterocyclic compound” (Takeda Pharmaceutical Company Limited, priority 2014, dated 2016) come the findings set out here.

Structures are written as SMILES.

The target in the assay is T1, human M1 receptor (hCHRM1) (Homo sapiens, UniProt P11229).
T1 construct: expressed in transfected cells
T1 sequence (P11229 1-460): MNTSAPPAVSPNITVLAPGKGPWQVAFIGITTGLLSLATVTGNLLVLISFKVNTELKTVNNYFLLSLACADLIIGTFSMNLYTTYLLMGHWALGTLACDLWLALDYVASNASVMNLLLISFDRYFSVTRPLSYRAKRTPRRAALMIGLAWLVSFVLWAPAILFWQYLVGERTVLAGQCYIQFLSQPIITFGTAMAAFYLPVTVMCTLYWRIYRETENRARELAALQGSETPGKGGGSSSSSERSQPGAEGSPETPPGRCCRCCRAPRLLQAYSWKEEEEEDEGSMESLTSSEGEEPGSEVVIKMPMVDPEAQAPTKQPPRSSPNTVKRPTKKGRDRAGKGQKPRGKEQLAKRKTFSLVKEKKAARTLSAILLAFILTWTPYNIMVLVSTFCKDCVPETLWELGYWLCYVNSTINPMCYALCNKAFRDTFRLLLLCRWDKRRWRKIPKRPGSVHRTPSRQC
Description: Measurement of M1 receptor positive allosteric modulator (M1PAM) activity, calcium fluorescence (FLIPRtetra) with acetylcholine at EC20. It is filed as cell-based. Conditions: for activity (%) at 10 μM: 10 μM test compound, 100% = acetylcholine 1 μM, 0% = DMSO, acetylcholine at EC20; for EC50: inflection point of concentration-dependent curve, CHO-K1 cells expressing hCHRM1, acetylcholine at EC20 (final 0.6-0.8 nM), read-out: IP value. How it is done:
The activity of a test compound in the presence of acetylcholine at EC20 concentration (final concentration 0.6-0.8 nM), which affords an action corresponding to about 20% of the maximum activity, was measured as PAM activity. The method is as follows. CHO-K1 cells stably expressing a human M1 receptor (hCHRM1) were plated on a 384-well black clear bottom plate (BD Falcon) at 5,000 cells/well, and cultured in an incubator at 37° C., 5% CO2 for 1 day. The medium in the cell plate was removed, and assay buffer A (Recording medium (DOJINDO LABORATORIES), 0.1% BSA (Wako Pure Chemical Industries, Ltd.), 2.5 μg/mL Fluo-4 AM (DOJINDO LABORATORIES), 0.08% Pluronic F127 (DOJINDO LABORATORIES), 1.25 mM probenecid (DOJINDO LABORATORIES)) containing a calcium indicator was added at 30 μL/well. The cells were left standing in the incubator at 37° C., 5% CO2 for 30 min, and further left standing at room temperature for 30 min. A test compound prepared by diluting with assay buffer B (HBSS (Invitrogen), 20 mM HEPES (Invitrogen), 0.1% BSA) containing 2.4-3.2 nM acetylcholine was added at 10 μL/well, and the fluorescence was measured by FLIPRtetra (Molecular Devices) for 1 min every 1 second. With the definition that the amount of change in the fluorescence on addition of acetylcholine (final concentration 1 μM) is 100% and that on addition of DMSO instead of a test compound is 0%, the activity (%) of the test compound was calculated, and the inflection point in the concentration-dependent curve of the test compound was calculated as IP values.

For `Cc1cc2c(cc1Cc1ccc(-c3cn(C)nn3)cc1)C(=O)N([C@H]1CCCC[C@@H]1O)C2` (racemic) [Example 47, rac-2-(trans-2-hydroxycyclohexyl)-5-methyl-6-(4-(1-methyl-1H-1,2,3-triazol-4-yl)benzyl)isoindolin-1-one], the “activity (%) at 10 μM” value is 99% and the EC50 worked out at 3 nM.
In the same order, the values of `Cc1cc2c(cc1Cc1ccc(-c3cn(C)nn3)cc1)C(=O)N(CC1CCCO1)C2` (stereo not shown) [Example 49, 5-methyl-6-(4-(1-methyl-1H-1,2,3-triazol-4-yl)benzyl)-2-(tetrahydrofuran-2-ylmethyl)isoindolin-1-one] are 97% and 31 nM.
In the same order, the values of `Cc1cc2c(cc1Cc1ccc(-n3cccn3)cc1)C(=O)N([C@H]1CCCC[C@@H]1O)C2` (racemic) [Example 32, rac-2-(trans-2-hydroxycyclohexyl)-5-methyl-6-(4-(1H-pyrazol-1-yl)benzyl)isoindolin-1-one] are 99% and 5.6 nM.
In the same order, the values of `CCc1cc2c(cc1Cc1ccc(-n3cccn3)cc1)C(=O)N([C@H]1CCC[C@@H]1O)C2` (racemic) [Example 59, rac-5-ethyl-2-(trans-2-hydroxycyclopentyl)-6-(4-(1H-pyrazol-1-yl)benzyl)isoindolin-1-one] are 100% and 34 nM.
As for `Cc1cc2c(cc1Cc1ccc(-n3cccn3)cc1)C(=O)N(c1c(F)cccc1C#N)C2` [Example 7, 3-fluoro-2-(5-methyl-1-oxo-6-(4-(1H-pyrazol-1-yl)benzyl)-1,3-dihydro-2H-isoindol-2-yl)benzonitrile], the “activity (%) at 10 μM” value was 107% and the EC50 was 180 nM.
As to `Cc1c(Cc2ccc(-n3cccn3)cc2)cc2c(c1F)CN([C@H]1CCCC[C@@H]1O)C2=O` (racemic) [Example 78, rac-4-fluoro-2-(trans-2-hydroxycyclohexyl)-5-methyl-6-(4-(1H-pyrazol-1-yl)benzyl)isoindolin-1-one], the “activity (%) at 10 μM” value is 95% and the EC50 worked out at 8.8 nM.
In the same order, the values of `CCOc1ccc(Cc2cc3c(c(C)c2C)CN([C@H]2COCC[C@@H]2O)C3=O)cc1` [Example 142, 6-(4-ethoxybenzyl)-2-[(3S,4S)-4-hydroxytetrahydro-2H-pyran-3-yl]-4,5-dimethyl-2,3-dihydro-1H-isoinol-1-one] are 106% and 31 nM.
In the same order, the values of `COc1ccc(Cc2cc3c(c(Cl)c2C)CN([C@H]2COCC[C@@H]2O)C3=O)cc1` [Example 24, 1,5-anhydro-2-(4-chloro-6-(4-methoxybenzyl)-5-methyl-1-oxo-1,3-dihydro-2H-isoindol-2-yl)-2,4-dideoxy-L-threo-pentitol] are 88% and 4.3 nM.
In the same order, the values of `Cc1c(Cc2ccc(-c3ccn(C)n3)cc2F)cc2c(c1C)CN([C@H]1CCC[C@@H]1O)C2=O` (racemic) [Example 71, rac-6-(2-fluoro-4-(1-methyl-1H-pyrazol-3-yl)benzyl)-2-(trans-2-hydroxycyclopentyl)-4,5-dimethylisoindolin-1-one] are 100% and 56 nM.
In the case of `Cc1c(Cc2ccc(-c3ccn(C)n3)cc2)cc2c(c1C)CN(C[C@@H]1CCCO1)C2=O` [Example 109, 4,5-dimethyl-6-(4-(1-methyl-1H-pyrazol-3-yl)benzyl)-2-((2S)-tetrahydrofuran-2-ylmethyl)isoindolin-1-one], the “activity (%) at 10 μM” value worked out at 100% and the EC50 came out at 23 nM.
Regarding `Cn1cc(-c2ccc(Cc3cc4c(cc3C3CC3)CN(CC3CCCO3)C4=O)cc2)nn1` (stereo not shown) [Example 61, 5-cyclopropyl-6-(4-(1-methyl-1H-1,2,3-triazol-4-yl)benzyl)-2-(tetrahydrofuran-2-ylmethyl)isoindolin-1-one], the “activity (%) at 10 μM” value was determined as 97% and the EC50 was 35 nM.
In the same order, the values of `Cn1cc(-c2ccc(Cc3cc4c(cc3Cl)CN([C@H]3CCCC[C@@H]3O)C4=O)cc2)cn1` (racemic) [Example 75, rac-5-chloro-2-(trans-2-hydroxycyclohexyl)-6-(4-(1-methyl-1H-pyrazol-4-yl)benzyl)isoindolin-1-one] are 97% and 23 nM.
In the same order, the values of `COc1ccc(Cc2cc3c(cc2C)CN([C@H]2CCCC[C@@H]2O)C3=O)cc1` [Example 167, 2-((1S,2S)-2-hydroxycyclohexyl)-6-(4-methoxybenzyl)-5-methylisoindolin-1-one] are 95% and 30 nM.
In the same order, the values of `CCc1cc2c(cc1Cc1ccc(-n3cccn3)cc1F)C(=O)N([C@H]1COCC[C@@H]1O)C2` [Example 144, 5-ethyl-6-[2-fluoro-4-(1H-pyrazol-1-yl)benzyl]-2-[(3S,4S)-4-hydroxytetrahydro-2H-pyran-3-yl]-2,3-dihydro-1H-isoindol-1-one] are 97% and 23 nM.
On to `COc1ccc(Cc2cc3c(c(C)c2C)CN([C@H]2CCCC[C@@H]2O)C3=O)cc1` [Example 141, 2-((1S,2S)-2-hydroxycyclohexyl)-6-(4-methoxybenzyl)-4,5-dimethylisoindolin-1-one], for which the “activity (%) at 10 μM” value amounted to 106% and the EC50 worked out at 18 nM.
In the same order, the values of `Cc1c(Cc2ccc(-n3cccn3)nc2)cc2c(c1C)CN(C[C@@H]1CCCO1)C2=O` [Example 136, 4,5-dimethyl-6-((6-(1H-pyrazol-1-yl)pyridin-3-yl)methyl)-2-((2S)-tetrahydrofuran-2-ylmethyl)isoindolin-1-one] are 100% and 75 nM.
In the same order, the values of `Cc1cc2c(cc1Cc1ccc(-n3cccn3)cc1)C(=O)N(C1CCOCC1)C2` [Example 8, 5-methyl-6-(4-(1H-pyrazol-1-yl)benzyl)-2-(tetrahydro-2H-pyran-4-yl)isoindolin-1-one] are 90% and 290 nM.
For `Cc1c(C#N)c(Cc2ccc(-n3cccn3)cc2)cc2c1CN([C@H]1CCCC[C@@H]1O)C2=O` (racemic) [Example 11, rac-2-(trans-2-hydroxycyclohexyl)-4-methyl-1-oxo-6-(4-(1H-pyrazol-1-yl)benzyl)isoindoline-5-carbonitrile], the “activity (%) at 10 μM” value came to 105% and the EC50 amounted to 13 nM.
In the same order, the values of `O=C1c2cc(Cc3ccc(-n4cccn4)cc3)c(C(F)(F)F)c(Cl)c2CN1[C@H]1CCCC[C@@H]1O` (racemic) [Example 10, rac-4-chloro-2-(trans-2-hydroxycyclohexyl)-6-(4-(1H-pyrazol-1-yl)benzyl)-5-(trifluoromethyl)isoindolin-1-one] are 106% and 66 nM.
Turning to `Cc1c(Cc2ccc(-n3cccn3)cc2)cc2c(c1C)CN(CC(C)(C)O)C2=O` [Example 15, 2-(2-hydroxy-2-methylpropyl)-4,5-dimethyl-6-(4-(1H-pyrazol-1-yl)benzyl)isoindolin-1-one], the “activity (%) at 10 μM” value is on record as 103% and the EC50 was determined as 11 nM.
In the same order, the values of `COc1ccc(Cc2cc3c(c(C)c2C)CN([C@H]2COCC[C@@H]2O)C3=O)cc1` (racemic) [Example 165, rac-2-(trans-4-hydroxytetrahydro-2H-pyran-3-yl)-6-(4-methoxybenzyl)-4,5-dimethyl-2,3-dihydro-1H-isoindol-1-one] are 103% and 36 nM.
Consider `Cc1c(Cc2ccc(-c3cn(C)nn3)cc2F)cc2c(c1C)CN(CC1CCCO1)C2=O` (stereo not shown) [Example 103, 6-(2-fluoro-4-(1-methyl-1H-1,2,3-triazol-4-yl)benzyl)-4,5-dimethyl-2-(tetrahydrofuran-2-ylmethyl)isoindolin-1-one], for which the “activity (%) at 10 μM” value is on record as 94% and the EC50 is 6 nM.
`COc1ccc(Cc2cc3c(c(F)c2C)CN([C@H]2CCCC[C@@H]2O)C3=O)cc1` [Example 154, 4-fluoro-2-((1S,2S)-2-hydroxycyclohexyl)-6-(4-methoxybenzyl)-5-methylisoindolin-1-one]: the “activity (%) at 10 μM” value was determined as 100% and the EC50 amounted to 22 nM.
